Test results as given in patent publication US20240400564A1 (Syndax Pharmaceuticals, Inc, priority 2021, published 2024).

Experiments:
[1] = biological target: hERG (Homo sapiens, UniProt Q12809); assay: Patch clamp assay (hERG tail currents, whole-cell)
[2] = test system: MLLr leukemia cell line MV4-11; assay: Cell proliferation assay MV4;11 (CellTiter-Glo, 72 hours); type: cell-based; settings: Homo sapiens; MV4-11 cells, 72 hours, CellTiter-Glo; read-out: MV4; 11 IC50
Procedure: Compounds were evaluated for its capacity to inhibit the proliferation of the MLLr leukemia cell line MV4-11 that harbors an MLL1-AF4 fusion protein. MV4-11 cells were cultured for 72 hours with limiting dilutions of compounds and viability was measured using CellTiter-Glo.
Compounds were dissolved to obtain as 10 mM solution in DMSO. The stock was diluted 1:5 to the top concentration of 2 mM in 100% DMSO. For IC50 determination, serial 1:3.16 dilutions were prepared in 100% DMSO by diluting 20 μL into 43.5 μL of DMSO for 8 concentrations. Each prepared DMSO solution were further diluted 1:500 in the cell culture media to obtain the 2× dosing solutions. The final concentrations of tested compounds in the cell culture media ranged from 0.632 nM to 2000 nM.
MV4-11 cells were cultured in IMDM with 10% FBS and 1× Penicillin-Streptomycin at 5% CO2 and 37° C. A cell suspension was prepared containing 15,000 cells/ml in the culture medium and 100 μL of this suspension was added per well to a 96-well cell culture plate. Then, 100 μL of 2× dosing media containing test compounds were added bringing the total volume to 200 μL. These cells were cultured for 72 hours at 37° C. and 5% CO2 in a humidified incubator.
After 72 hours, the cultured cells were mixed and 100 μL was transferred to a 96-well black plate. Cell Titer Glo (100 μl) was then added to this plate. The plate was mixed with shaking for 15 mins at RT, the luminescence was then measured using Tecan Spark 20M spectrophotometer. Cell Viability (%) was determined by RLU of test/RLU average vehicle control*100 and % max inhibition was determined by 100−(% cell viability remaining at the top concentration of compound).

hERG, sequence (Q12809 whole entry): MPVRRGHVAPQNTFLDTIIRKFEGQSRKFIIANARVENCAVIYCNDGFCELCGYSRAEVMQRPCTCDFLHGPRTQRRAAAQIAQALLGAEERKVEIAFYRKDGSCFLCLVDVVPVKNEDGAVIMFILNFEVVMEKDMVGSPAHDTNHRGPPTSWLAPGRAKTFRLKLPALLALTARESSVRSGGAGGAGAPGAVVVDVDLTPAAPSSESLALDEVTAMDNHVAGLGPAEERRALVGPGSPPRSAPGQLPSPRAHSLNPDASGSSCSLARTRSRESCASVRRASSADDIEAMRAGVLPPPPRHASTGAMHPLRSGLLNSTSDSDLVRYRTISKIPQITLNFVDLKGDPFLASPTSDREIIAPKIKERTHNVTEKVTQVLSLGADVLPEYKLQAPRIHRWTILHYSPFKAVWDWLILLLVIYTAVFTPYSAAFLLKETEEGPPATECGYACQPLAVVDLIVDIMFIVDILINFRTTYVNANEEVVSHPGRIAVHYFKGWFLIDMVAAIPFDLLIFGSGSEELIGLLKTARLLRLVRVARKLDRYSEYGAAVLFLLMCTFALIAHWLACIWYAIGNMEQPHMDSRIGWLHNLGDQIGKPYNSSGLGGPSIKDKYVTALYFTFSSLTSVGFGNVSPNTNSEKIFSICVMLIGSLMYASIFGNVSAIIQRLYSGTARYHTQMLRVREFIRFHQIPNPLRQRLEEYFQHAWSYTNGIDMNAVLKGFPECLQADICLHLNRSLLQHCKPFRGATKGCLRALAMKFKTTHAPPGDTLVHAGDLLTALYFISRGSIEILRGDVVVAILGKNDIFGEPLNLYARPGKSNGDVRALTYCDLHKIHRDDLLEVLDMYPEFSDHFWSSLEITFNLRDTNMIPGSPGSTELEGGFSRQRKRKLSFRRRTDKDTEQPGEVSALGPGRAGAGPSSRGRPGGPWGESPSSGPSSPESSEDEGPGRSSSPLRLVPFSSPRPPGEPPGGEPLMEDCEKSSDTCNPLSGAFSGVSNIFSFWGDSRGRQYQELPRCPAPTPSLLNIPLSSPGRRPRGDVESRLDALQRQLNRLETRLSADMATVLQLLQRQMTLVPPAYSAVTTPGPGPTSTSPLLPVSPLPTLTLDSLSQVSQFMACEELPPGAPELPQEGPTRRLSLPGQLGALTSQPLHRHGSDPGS

Structure (SMILES)	hERG % Remaining ([1]; 30 μM compound)	IC50 [2] [nM]	hERG % Remaining ([1]; 10 μM compound)
CC(C)N(C(=O)c1cc(F)ccc1Oc1cncnc1N1CC2(CCN(C[C@@H]3CC[C@@H](NS(=O)(=O)N4CCC[C@@H]4C)CO3)CC2)C1)C(C)C [Example 202, 5-Fluoro-N,N-diisopropyl-2-((4-(7-(((2S,5R)-5-(((S)-2-methylpyrrolidine)-1-sulfonamido)tetrahydro-2H-pyran-2-yl)methyl)-2,7-diazaspiro[3.5]nonan-2-yl)pyrimidin-5-yl)oxy)benzamide]	+ (<33%)	< 100	
CC(C)N(C(=O)c1cc(F)ccc1Oc1cncnc1N1CC2(CCN(C[C@@H]3CC[C@@H](NS(=O)(=O)c4cnn(C5CC5)c4)CO3)CC2)C1)C(C)C [Example 83, 2-((4-(7-(((2S,5R)-5-((1-Cyclopropyl-1H-pyrazole)-4-sulfonamido)tetrahydro-2H-pyran-2-yl)methyl)-2,7-diazaspiro[3.5]nonan-2-yl)pyrimidin-5-yl)oxy)-5-fluoro-N,N-diisopropylbenzamide]	++ (233% and ≤66%)	< 100	+++ (≥66%)
Cc1nc(S(=O)(=O)N[C@@H]2CC[C@@H](CN3CCC4(CC3)CN(c3ncncc3Oc3ccc(F)cc3C(=O)N(C(C)C)C(C)C)C4)OC2)co1 [Example 91, 5-Fluoro-N,N-diisopropyl-2-((4-(7-(((2S,5R)-5-((2-methyloxazole)-4-sulfonamido)tetrahydro-2H-pyran-2-yl)methyl)-2,7-diazaspiro[3.5]nonan-2-yl)pyrimidin-5-yl)oxy)benzamide]	++ (233% and ≤66%)	< 100	
CCN(C(=O)c1cc(F)ccc1Oc1cncnc1N1CC2(CCN(C[C@@H]3CC[C@@H](NS(=O)(=O)c4csc(C)n4)CO3)CC2)C1)C(C)C [Example 71, N-Ethyl-5-fluoro-N-isopropyl-2-((4-(7-(((2S,5R)-5-((2-methylthiazole)-4-sulfonamido)tetrahydro-2H-pyran-2-yl)methyl)-2,7-diazaspiro[3.5]nonan-2-yl)pyrimidin-5-yl)oxy)benzamide]	++ (233% and ≤66%)	< 100	+++ (≥66%)
CC(C)N(C(=O)c1cc(F)ccc1Oc1cncnc1N1CC2(CCN(C[C@@H]3CC[C@@H](NS(C)(=O)=O)CO3)CC2)C1)C1CC(F)(F)C1 [Example 112, N-(3,3-Difluorocyclobutyl)-5-fluoro-N-isopropyl-2-((4-(7-(((2S,5R)-5-(methylsulfonamido)tetrahydro-2H-pyran-2-yl)methyl)-2,7-diazaspiro[3.5]nonan-2-2-yl)pyrimidin-5-yl)oxy)benzamide]		< 100	
CN=S(=O)(N[C@@H]1CC[C@@H](CN2CCC3(CC2)CN(c2ncncc2Oc2ccc(F)cc2C(=O)N(C(C)C)C(C)C)C3)OC1)c1ccccc1 (stereo partly drawn) [Example 232, 5-Fluoro-N,N-diisopropyl-2-((4-(7-(((2S,5R)-5-(N′-methylphenylsulfonoamidimidamido)tetrahydro-2H-pyran-2-yl)methyl)-2,7-diazaspiro[3.5]nonan-2-yl)pyrimidin-5-yl)oxy)benzamide]		100 to 1000	
CC(C)N(C(=O)c1cc(F)ccc1Oc1cncnc1N1CC2(CCN(C[C@@H]3CC[C@@H](NS(=O)(=O)C4CCOCC4)CO3)CC2)C1)C(C)C [Example 79]		< 100	
COC[C@H]1CCCN1S(=O)(=O)N[C@@H]1CC[C@@H](CN2CCC3(CC2)CN(c2ncncc2Oc2ccc(F)cc2C(=O)N(C(C)C)C(C)C)C3)OC1 [Example 212, 5-Fluoro-N,N-diisopropyl-2-((4-(7-(((2S,5R)-5-(((R)-2-(methoxymethyl)pyrrolidine)-1-sulfonamido)tetrahydro-2H-pyran-2-yl)methyl)-2,7-diazaspiro[3.5]nonan-2-yl)pyrimidin-5-yl)oxy)benzamide]		< 100	
CCN(C(=O)c1cc(F)ccc1Oc1cncnc1N1CC2(CCN(C[C@@H]3CC[C@@H](NS(=O)(=O)N4CC(F)(F)C4)CO3)CC2)C1)C(C)C [Example 70, 2-((4-(7-(((2S,5R)-5-((3,3-Difluoroazetidine)-1-sulfonamido)tetrahydro-2H-pyran-2-yl)methyl)-2,7-diazaspiro[3.5]nonan-2-yl)pyrimidin-5-yl)oxy)-N-ethyl-5-fluoro-N-isopropylbenzamide]		< 100	
CC(C)N(CC(F)(F)F)C(=O)c1cc(F)ccc1Oc1nncnc1N1CC2(CCN(C[C@@H]3CC[C@@H](NS(=O)(=O)c4cnn(C)c4)CO3)CC2)C1 [Example 192, 5-Fluoro-N-isopropyl-2-((5-(7-(((2R,5S)-5-((1-methyl-1H-pyrazole)-4-sulfonamido)tetrahydro-2H-pyran-2-yl)methyl)-2,7-diazaspiro[3.5]nonan-2-yl)-1,2,4-triazin-6-yl)oxy)-N-(2,2,2-trifluoroethyl)benzamide]		< 100	
CC(C)N(CC(F)F)C(=O)c1cc(F)ccc1Oc1nncnc1N1CC2(CCN(C[C@@H]3CC[C@@H](NS(=O)(=O)c4cnn(C)c4)CO3)CC2)C1 [Example 187, N-(2,2-Difluoroethyl)-5-fluoro-N-isopropyl-2-((5-(7-(((2S,5R)-5-((1-methyl-1H-pyrazole)-4-sulfonamido)tetrahydro-2H-pyran-2-yl)methyl)-2,7-diazaspiro[3.5]nonan-2-yl)-1,2,4-triazin-6-yl)oxy)benzamide]		< 100	
CCS(=O)(=O)N[C@@H]1CC[C@@H](CN2CCC3(CC2)CN(c2ncncc2Oc2ccc(F)cc2C(=O)N(C(C)C)[C@H]2C[C@H](O)C2)C3)OC1 [Example 259, 2-((4-(7-(((2S,5R)-5-(Ethylsulfonamido)tetrahydro-2H-pyran-2-yl)methyl)-2,7-diazaspiro[3.5]nonan-2-yl)pyrimidin-5-yl)oxy)-5-fluoro-N-((1r,3r)-3-hydroxycyclobutyl)-N-isopropylbenzamide]		< 100	
CC(C)N(C(=O)c1cc(F)ccc1Oc1cncnc1N1CC2(CCN(C[C@@H]3CC[C@@H](NS(=O)(=O)N4CCC[C@@H]4C)CO3)CC2)C1)[C@@H]1CCOC1 [Example 205, 5-Fluoro-N-isopropyl-2-((4-(7-(((2S,5R)-5-(((S)-2-methylpyrrolidine)-1-sulfonamido)tetrahydro-2H-pyran-2-yl)methyl)-2,7-diazaspiro[3.5]nonan-2-yl)pyrimidin-5-yl)oxy)-N-((R)-tetrahydrofuran-3-yl)benzamide]		< 100	
CC(C)N(C(=O)c1cc(F)ccc1Oc1cncnc1N1CC2(CCN(C[C@@H]3CC[C@@H](NS(=O)(=O)N4CCC[C@@H]4C)CO3)CC2)C1)C1CCOC1 (stereo partly drawn) [Example 206, 5-Fluoro-N-isopropyl-2-((4-(7-(((2S,5R)-5-(((S)-2-methylpyrrolidine)-1-sulfonamido)tetrahydro-2H-pyran-2-yl)methyl)-2,7-diazaspiro[3.5]nonan-2-yl)pyrimidin-5-yl)oxy)-N-((S)-tetrahydrofuran-3-yl)benzamide]		< 100	
CC(C)N(CC(F)F)C(=O)c1cc(F)ccc1Oc1cncnc1N1CC2(CCN(C[C@@H]3CC[C@@H](NS(=O)(=O)C4CCOCC4)CO3)CC2)C1 [Example 98, N-(2,2-Difluoroethyl)-5-fluoro-N-isopropyl-2-((4-(7-(((2S,5R)-5-((tetrahydro-2H-pyran)-4-sulfonamido)tetrahydro-2H-pyran-2-yl)methyl)-2,7-diazaspiro[3.5]nonan-2-yl)pyrimidin-5-yl)oxy)benzamide]		< 100	
CC(C)N(C(=O)c1cc(F)ccc1Oc1nncnc1N1CC2(CCN(C[C@@H]3CC[C@@H](NS(=O)(=O)c4cnn(C)c4)CO3)CC2)C1)C(C)C [Example 197, 5-Fluoro-N,N-diisopropyl-2-((5-(7-(((2S,5R)-5-((1-methyl-1H-pyrazole)-4-sulfonamido)tetrahydro-2H-pyran-2-yl)methyl)-2,7-diazaspiro[3.5]nonan-2-yl)-1,2,4-triazin-6-yl)oxy)benzamide]		< 100	
CC(C)N(CC(F)F)C(=O)c1cc(F)ccc1Oc1cncnc1N1CC2(CCN(C[C@@H]3CC[C@@H](NS(=O)(=O)N(C)CCOCc4ccccc4)CO3)CC2)C1 [Example 238]		< 100	
CC(C)N(C(=O)c1cc(F)ccc1Oc1cncnc1N1CC2(CCN(C[C@@H]3CC[C@@H](NS(=O)(=O)c4ccc(=O)n(C)c4)CO3)CC2)C1)C(C)C [Example 92, 5-Fluoro-N,N-diisopropyl-2-((4-(7-(((2S,5R)-5-((1-methyl-6-oxo-1,6-dihydropyridine)-3-sulfonamido)tetrahydro-2H-pyran-2-yl)methyl)-2,7-diazaspiro[3.5]nonan-2-yl)pyrimidin-5-yl)oxy)benzamide]		< 100	
CCN(C(=O)c1cc(F)ccc1Oc1cncnc1N1CC2(CCN(C[C@@H]3CC[C@@H](NS(=O)(=O)C4CCOCC4)CO3)CC2)C1)C(C)C [Example 67, N-Ethyl-5-fluoro-N-isopropyl-2-((4-(7-(((2S,5R)-5-((tetrahydro-2H-pyran)-4-sulfonamido)tetrahydro-2H-pyran-2-yl)methyl)-2,7-diazaspiro[3.5]nonan-2-yl)pyrimidin-5-yl)oxy)benzamide]		< 100	
